Structures are written as SMILES. Where “and” joins values, the source holds several entries; their conditions need not be identical. Equal values may be shown once. Read-outs that look alike come from different tables or passages of the source.

In the assay the target is T1, DrOTOP1 I565W (Danio rerio, UniProt Q7ZWK8, I565W).
T1 construct: A previously generated codon-optimized full-length DrOTOP1[8]; (UniProt: Q7ZWK8) construct; expressed in transfected cells; host or cells: HEK-293 (CRL-1573, ATCC)
T1 sequence (Q7ZWK8 1-586 I565W): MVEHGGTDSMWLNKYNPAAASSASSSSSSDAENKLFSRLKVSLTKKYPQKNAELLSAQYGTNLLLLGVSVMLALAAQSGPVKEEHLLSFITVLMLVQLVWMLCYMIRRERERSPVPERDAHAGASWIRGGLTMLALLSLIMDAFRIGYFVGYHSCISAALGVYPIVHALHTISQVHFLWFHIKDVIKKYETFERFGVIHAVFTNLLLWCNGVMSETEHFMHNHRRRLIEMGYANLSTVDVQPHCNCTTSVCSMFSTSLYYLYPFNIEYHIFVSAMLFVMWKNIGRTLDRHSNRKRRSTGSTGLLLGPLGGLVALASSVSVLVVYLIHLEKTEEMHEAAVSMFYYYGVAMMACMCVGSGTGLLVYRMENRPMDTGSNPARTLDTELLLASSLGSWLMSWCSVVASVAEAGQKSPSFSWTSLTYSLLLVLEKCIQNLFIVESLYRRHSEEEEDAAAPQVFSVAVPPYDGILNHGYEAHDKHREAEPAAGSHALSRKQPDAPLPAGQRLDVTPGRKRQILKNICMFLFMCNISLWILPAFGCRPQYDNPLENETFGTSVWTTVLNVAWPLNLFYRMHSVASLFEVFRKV
As to the kind of experiment: Whole-cell patch-clamp, inhibition of acid-evoked currents, DrOTOP1 I565W (C-domain pocket). In kind it is cell-based, zebrafish (Danio rerio). Further details: key to inhibition of acid-evoked current, single cells: % inhibition = ((I2peak - I1)/I2peak)*100. The conditions noted are these: for LogAbsoluteIC50: concentration in uM. The text has this: To experimentally verify whether C11 and C2.2 bind in the C-domain pocket as predicted, we used their docked poses to guide mutagenesis. The predicted interactions for C11 and C2.2 include π-stacking with F342 and Y422, potential H-bonding with Q542, N568, and R572 (Fig. 2J, K and Supplementary Fig. 5A), and hydrophobic packing. We generated single-residue mutants of these and other residues in DrOTOP1 that were expected to disrupt specific molecular interactions or to introduce a bulky tryptophan residue (W) to produce steric hindrance.
HEK-293 cells (CRL-1573, ATCC) were cultured in DMEM (Thermofisher 11995073) containing 10% fetal bovine serum (Life Technology 16000044) and Penicillin-Streptomycin (100 I.U./mL) and (100 µg/mL), respectively. Cells were transfected with WT DrOTOP1 or mutant DrOTOP1 channels in 35 mm petri dishes, with ~ 500 ng DNA and 2 μL TransIT-LT1 transfection reagent (Mirus Bio Corporation, Cat # MIR2300) following the manufacturer’s protocol. All constructs were subcloned into a pcDNA3.1 vector that adds an N-terminal fusion tag consisting of an octahistidine tag followed by eGFP, a Gly-Thr-Gly-Thr linker and a 3C protease cleavage site ([…]) followed by WT DrOTOP1, WT mOTOP1, WT hOTOP1, or mutated DrOTOP1. Point mutations were generated via In-Fusion Cloning (Takara) using single-stranded DNA primers generated through IDT and sequence confirmed by Sanger sequencing (GeneWiz).
Whole-cell patch-clamp recording was performed as previously described[6],[22],[25]. Recordings were made with an Axopatch 200B amplifier, digitized with a Digidata 1322a 16-bit data acquisition system, acquired with pClamp 8.2 and analyzed with Clampfit 10 (Molecular Devices). Recordings were sampled at 5 kHz and filtered at 1 kHz. Patch Pipettes with resistance of […] were fabricated from borosilicate glass, and only recordings with a giga-Ohm seal were used in analysis. Membrane potential was held at −80 mV for the duration of recordings. At the beginning of recordings and between, cells were washed with Tyrode’s solution (see below). Once a giga-Ohm seal was reached, cells were lifted and placed in front of microcapillary tubes controlled by a Fast-Step perfusion system (Warner Instruments) so that extracellular solutions could be rapidly exchanged during each experiment.
Standard Tyrode’s solution consisted of 145 mM NaCl, 5 mM KCl, MgCl2, 2 mM CaCl2, 20 mM D-Glucose, and 10 mM HEPES (for pH 7.4). All other extracellular patch-clamp solutions contained 160 mM NMDG-Cl, 2 mM CaCl2, and the following buffers: 10 mM HEPES (for pH 7.4), 10 mM MES (for pH 6.5-5.5), 10 mM CHES for pH 10, and 10 mM HomoPIPES for (pH 5.0). pH adjusted with HCl. When adding compounds to extracellular solutions, the concentration of DMSO in solution was never higher than 0.3%. The pipette contained intracellular solution made up of 120 mM Cs-aspartate, 15 mM CsCl, 2 mM Mg-ATP, 5 mM EGTA, 2.4 mM CaCl2 (100 nM free Ca^2+), and 10 mM HEPES with a pH of 7.3. All extracellular solution osmolarity was adjusted to 300 mOsm and intracellular osmolarity was adjusted to 290 mOsm.
All data are presented as mean ± SEM unless otherwise noted, and each data point represents an independent replicant. Inhibition of compounds was quantified as ((I2peak-I1)/(I2peak))*100, where I1 is the current immediately before wash-off and I2peak is the maximum recovered current (Supplementary Fig. 2). Hill coefficients were determined by the following equation: Y = Bmax*X^h/(Kd^h + X^h). Absolute IC50 was determined by the following equation: Fifty = (Top + Baseline)/2 Y = Bottom + (Top-Bottom)/(1 + ((Top-Bottom)/(Fifty-Bottom) − 1)*(AbsoluteIC50/X)^HillSlope). pH50 curves (Fig. 6G inset) were determined using the following equation: Y = Bottom + (Top-Bottom)/(1 + (EC/X)^HillSlope) where EC = EC50 control. Graphs with electrophysiological data were made in Graphpad Prism 10 (Graphpad Software Inc). […]
(In general: In patch-clamp work, channel activity is measured electrically.)

As for `C=C(C)COc1ccccc1NC(=O)c1nc[nH]c1C` [C2.2], the Hill coefficient was found to be 1.22 and the “Shift of IC50 compared with WT” value is ~ 10 fold. Besides, the “inhibition of acid-evoked current, single cells” value (“inhibition … single cells” below) (C2.2 3 uM, Supp. Fig 5G) is 6.531 and 5.9632 and 6.805 and 3.704. Moreover, the inhibition at 3 µM (C2.2 3 uM, Supp. Fig 5G, read-out: inhibition of acid-evoked current, single cells) was determined as 5.54%. Further, the “inhibition … single cells” value (C2.2 10 uM, Supp. Fig 5G) is 8.1748 and 9.4295 and 12.133 and 10.612. Also, the inhibition at 10 µM (C2.2 10 uM, Supp. Fig 5G, read-out: inhibition of acid-evoked current, single cells) was 8.99%. In addition, the “inhibition … single cells” value (C2.2 30 uM, Supp. Fig 5G) is 15.885 and 20.063 and 20.497 and 20.983 and 13.0981 and 19.6998. The inhibition at 30 µM (C2.2 30 uM, Supp. Fig 5G, read-out: inhibition of acid-evoked current, single cells) was 23.3%. In addition, the inhibition at 100 µM (C2.2 100 uM, Supp. Fig 5G, read-out: inhibition of acid-evoked current, single cells) is 63.2%. Also, the inhibition at 300 µM (C2.2 300 uM, Supp. Fig 5G, read-out: inhibition of acid-evoked current, single cells) was 78.2%. Under “best-fit, Supp. Fig 5G”, this compound displayed a HillSlope of 1.217 and a LogAbsoluteIC50 of 1.918. The IC50 (best-fit, Top 100, Bottom 0, Supp. Fig 5G, read-out: AbsoluteIC50) was determined as 82.9 µM. Further, the IC50 (pH 5.5, read-out: IC50) is 82 µM and 82.9 µM.
Turning to `O=C(/C(=N\O)c1ccccc1)c1ccccc1` [C11, benzil monoxime], the Hill coefficient is given as 1.57 and the “Shift of IC50 compared with WT” value is recorded as ~ 2.5 fold. The “inhibition … single cells” value (C11 10 uM, Supp. Fig 5D) is 2.087 and 1.672. Moreover, the inhibition at 10 µM (C11 10 uM, Supp. Fig 5D, read-out: inhibition of acid-evoked current, single cells) was determined as 1.63%. Moreover, where the note is “C11 30 uM, Supp. Fig 5D”, the “inhibition … single cells” value was 9.463 and 7.048 and 7.021. Besides, under “C11 30 uM, Supp. Fig 5D, read-out: inhibition of acid-evoked current, single cells”, the inhibition at 30 µM was 7.27%. Further, the “inhibition … single cells” value (C11 100 uM, Supp. Fig 5D) was 29.7468 and 24.8826 and 21.3974 and 29.1115. The inhibition at 100 µM (C11 100 uM, Supp. Fig 5D, read-out: inhibition of acid-evoked current, single cells) turned out to be 29.4%. For the same compound, the “inhibition … single cells” value (C11 200 uM, Supp. Fig 5D) is on record as 48.5849. In addition, the inhibition at 200 µM (C11 200 uM, Supp. Fig 5D, read-out: inhibition of acid-evoked current, single cells) came out at 42.1%. Besides, for the setting “C11 300 uM, Supp. Fig 5D”, the “inhibition … single cells” value was 63.41 and 66.778 and 78.1609 and 62.1622 and 62.7854 and 80.0142 and 64.4878. For the same compound, the inhibition at 300 µM (C11 300 uM, Supp. Fig 5D, read-out: inhibition of acid-evoked current, single cells) was determined as 71.5%. Under “best-fit, Supp. Fig 5D”, this compound gave a HillSlope of 1.566 and a LogAbsoluteIC50 of 2.279. Also, the IC50 (best-fit, Top 100, Bottom 0, Supp. Fig 5D, read-out: AbsoluteIC50) is 190 µM. In addition, under “pH 5.5, read-out: IC50”, the IC50 turned out to be 190 µM.

As a reminder, the Hill coefficient is a measure of the steepness of the concentration-response curve. One may read the inhibition as the drop in the measured response relative to a control, in per cent.

These data come from article PMC12549899 (Nature Communications, 2025).
